In US8017612B2, “Piperazine compound and use thereof as a HCV polymerase inhibitor” (priority 2006, dated 2011):
Where a name gives a salt, the structure may show the parent alone.

Assays:
[1] = biological target: T1, HCV polymerase (NS5B) type 1a (Hepatitis C virus genotype 1a, UniProt P26664); assay: Assay of enzyme (HCV polymerase) inhibitory activity, type 1a enzyme; format: biochemical, HCV type 1a (cloned from the blood of patients); conditions: HCV polymerase inhibitory activity (IC50), 1a, type 1a enzyme 1.5 μg/ml, 25° C., 60 min
T1 construct: made in house; host or cells: Escherichia coli (by the 'similar method' of the 1b enzyme)
In short: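 NS5B Δ47 C-term His6 (type 1a, 1.5 μg/ml); substrate RNA 5 μg/ml; ATP/GTP/CTP 50 μM, UTP 2 μM + [5,6-3H]UTP; Tris pH 7.5, MgCl2 5 mM; 25° C, 60 min. TCA/pyrophosphate stop, GF/B filter, scintillation. IC50 vs no-compound control.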

[2] = biological target: T2, HCV polymerase (NS5B) type 1b (Hepatitis C virus genotype 1b, UniProt P26663); assay: Assay of enzyme (HCV polymerase) inhibitory activity, type 1b enzyme; format: biochemical, HCV BK strain (type 1b); conditions: HCV polymerase inhibitory activity (IC50), 1b, type 1b enzyme 0.5 μg/ml, 25° C., 60 min
T2 construct: a region encoding NS5B (J Virol 1991 March, 65(3), 1105-13, 544 amino acids after deletion of 47 amino acids on the C-terminal); 6xHis (C); made in house; host or cells: Escherichia coli
In short: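 Rxn: NS5B 1b (BK, ΔC47, His6) 0.5 μg/ml; substrate RNA 5 μg/ml; ATP/GTP/CTP 50 μM, UTP 2 μM + [5,6-3H]UTP; 20 mM Tris pH 7.5, 5 mM MgCl2, 50 mM NaCl, 1 mM EDTA/DTT. 25 °C, 60 min. Stop with TCA/pyrophosphate, filter, scintillation count; IC50 vs. untreated.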

| Structure (SMILES) | IC50 [1] | IC50 [2] |
| --- | --- | --- |
| CC(=O)N1CCN(S(=O)(=O)c2ccc(C(C)C)cc2)C(C(=O)NCc2ccc(OC(F)(F)F)cc2)C1 (centres unmarked) [Example 53, 4-acetyl-1-(4-isopropyl-benzenesulfonyl)-piperazine-2-carboxylic acid 4-trifluoromethoxy-benzylamide] | 100 to 1000 nM | 100 to 1000 nM |
| CC(=O)N1CCN(S(=O)(=O)c2ccc(C(C)C)cc2)C(C(=O)NCc2ccc(Br)cc2)C1 (centres unmarked) [Example 54, 4-acetyl-1-(4-isopropyl-benzenesulfonyl)-piperazine-2-carboxylic acid 4-bromo-benzylamide] | > 1000 nM | > 1000 nM |
| CC(C)c1ccc(S(=O)(=O)N2CCN(C(=O)CO)CC2C(=O)NCc2ccc(C(F)(F)F)cc2)cc1 (centres unmarked) [Example 55, 4-(2-hydroxy-acetyl)-1-(4-isopropyl-benzenesulfonyl)-piperazine-2-carboxylic acid 4-trifluoromethyl-benzylamide] | > 1000 nM | > 1000 nM |
| CC(C)c1ccc(S(=O)(=O)N2CCN(C(=O)C(C)(C)O)CC2C(=O)NCc2ccc(C(F)(F)F)cc2)cc1 (centres unmarked) [Example 56, 4-(2-hydroxy-2-methyl-propionyl)-1-(4-isopropyl-benzenesulfonyl)-piperazine-2-carboxylic acid 4-trifluoromethyl-benzylamide] | > 1000 nM | > 1000 nM |
| COCC(=O)N1CCN(S(=O)(=O)c2ccc(C(C)C)cc2)C(C(=O)NCc2ccc(C(F)(F)F)cc2)C1 (centres unmarked) [Example 57, 1-(4-isopropyl-benzenesulfonyl)-4-(2-methoxy-acetyl)-piperazine-2-carboxylic acid 4-trifluoromethyl-benzylamide] | > 1000 nM | > 1000 nM |
| CC(C)c1ccc(S(=O)(=O)N2CCN(C(=O)CCO)CC2C(=O)NCc2ccc(C(F)(F)F)cc2)cc1 (centres unmarked) [Example 58, 4-(3-hydroxy-propionyl)-1-(4-isopropyl-benzenesulfonyl)-piperazine-2-carboxylic acid 4-trifluoromethyl-benzylamide] | > 1000 nM | > 1000 nM |
| CC(C)c1ccc(S(=O)(=O)N2CCN(C(=O)N(C)C)CC2C(=O)NCc2ccc(C(F)(F)F)cc2)cc1 (centres unmarked) [Example 59, 4-(4-isopropyl-benzenesulfonyl)-piperazine-1,3-dicarboxylic acid 1-dimethylamide 3-(4-trifluoromethyl-benzylamide)] | > 1000 nM | > 1000 nM |
| CCc1ccc(S(=O)(=O)N2CCN(C(C)=O)CC2C(=O)NCc2ccc(C(F)(F)F)cc2)cc1 (centres unmarked) [Example 60, 4-acetyl-1-(4-ethyl-benzenesulfonyl)-piperazine-2-carboxylic acid 4-trifluoromethyl-benzylamide] | > 1000 nM | > 1000 nM |
| CC(=O)N1CCN(S(=O)(=O)c2ccc(I)cc2)C(C(=O)NCc2ccc(C(F)(F)F)cc2)C1 (centres unmarked) [Example 61, 4-acetyl-1-(4-iodo-benzenesulfonyl)-piperazine-2-carboxylic acid 4-trifluoromethyl-benzylamide] | > 1000 nM | > 1000 nM |
| CC(=O)N1CCN(S(=O)(=O)c2ccc(-n3cc(Cl)cn3)s2)C(C(=O)NCc2ccc(C(F)(F)F)cc2)C1 (centres unmarked) [Example 62, 4-acetyl-1-[5-(4-chloro-pyrazol-1-yl)-thiophene-2-sulfonyl]-piperazine-2-carboxylic acid 4-trifluoromethyl-benzylamide] | > 1000 nM | > 1000 nM |
| CC(C)c1ccc(S(=O)(=O)N2CCN(C=O)CC2C(=O)NCc2ccc(C(F)(F)F)cc2)cc1 (centres unmarked) [Example 63, 4-formyl-1-(4-isopropyl-benzenesulfonyl)-piperazine-2-carboxylic acid 4-trifluoromethyl-benzylamide] | > 1000 nM | > 1000 nM |
| CC(=O)N1CCN(S(=O)(=O)c2ccc(C)cc2)C(C(=O)NCc2ccc(C(F)(F)F)cc2)C1 (centres unmarked) [Example 64, 4-acetyl-1-(toluene-4-sulfonyl)-piperazine-2-carboxylic acid 4-trifluoromethyl-benzylamide] | > 1000 nM | > 1000 nM |
| CC(=O)N1CCN(S(=O)(=O)c2ccc(OC(F)(F)F)cc2)C(C(=O)NCc2ccc(C(F)(F)F)cc2)C1 (centres unmarked) [Example 65, 4-acetyl-1-(4-trifluoromethoxy-benzenesulfonyl)-piperazine-2-carboxylic acid 4-trifluoromethyl-benzylamide] | > 1000 nM | > 1000 nM |
| CC(=O)N1CCN(S(=O)(=O)c2ccc(Oc3cccnc3)cc2)C(C(=O)NCc2ccc(C(F)(F)F)cc2)C1 (centres unmarked) [Example 66, 4-acetyl-1-[4-(pyridin-3-yloxy)-benzenesulfonyl]-piperazine-2-carboxylic acid 4-trifluoromethyl-benzylamide hydrochloride] | > 1000 nM | > 1000 nM |
| CC(=O)N1CCN(S(=O)(=O)c2ccc(C(C)C)cc2)C(C(=O)NCc2ccccc2F)C1 (centres unmarked) [Example 67, 4-acetyl-1-(4-isopropyl-benzenesulfonyl)-piperazine-2-carboxylic acid 2-fluoro-benzylamide] | > 1000 nM | > 1000 nM |
| CC(=O)N1CCN(S(=O)(=O)c2ccc(C(C)C)cc2)C(C(=O)NCc2ccc(C(C)(C)C)cc2)C1 (centres unmarked) [Example 68, 4-acetyl-1-(4-isopropyl-benzenesulfonyl)-piperazine-2-carboxylic acid 4-tert-butyl-benzylamide] | 100 to 1000 nM | 100 to 1000 nM |
| CC(=O)N1CCN(S(=O)(=O)c2cnc(Cl)c(Br)c2)C(C(=O)NCc2ccc(C(F)(F)F)cc2)C1 (centres unmarked) [Example 69, 4-acetyl-1-(5-bromo-6-chloro-pyridine-3-sulfonyl)-piperazine-2-carboxylic acid 4-trifluoromethyl-benzylamide hydrochloride] | > 1000 nM | > 1000 nM |
| CC(=O)N1CCN(S(=O)(=O)c2ccc(N3CCOCC3)nc2)C(C(=O)NCc2ccc(C(F)(F)F)cc2)C1 (centres unmarked) [Example 70, 4-acetyl-1-(6-morpholin-4-yl-pyridine-3-sulfonyl)-piperazine-2-carboxylic acid 4-trifluoromethyl-benzylamide hydrochloride] | > 1000 nM | > 1000 nM |
| COc1cccc(S(=O)(=O)N2CCN(C(C)=O)CC2C(=O)NCc2ccc(C(F)(F)F)cc2)c1 (centres unmarked) [Example 71, 4-acetyl-1-(3-methoxy-benzenesulfonyl)-piperazine-2-carboxylic acid 4-trifluoromethyl-benzylamide] | > 1000 nM | > 1000 nM |
| CCCc1ccc(S(=O)(=O)N2CCN(C(C)=O)CC2C(=O)NCc2ccc(C(F)(F)F)cc2)cc1 (centres unmarked) [Example 72, 4-acetyl-1-(4-propyl-benzenesulfonyl)-piperazine-2-carboxylic acid 4-trifluoromethyl-benzylamide] | > 1000 nM | 100 to 1000 nM |
| CC(=O)N1CCN(S(=O)(=O)c2ccc(-c3ccccc3)cc2)C(C(=O)NCc2ccc(C(F)(F)F)cc2)C1 (centres unmarked) [Example 73, 4-acetyl-1-(biphenyl-4-sulfonyl)-piperazine-2-carboxylic acid 4-trifluoromethyl-benzylamide] | > 1000 nM | > 1000 nM |
| CC(=O)N1CCN(S(=O)(=O)c2cc3ccccc3s2)C(C(=O)NCc2ccc(C(F)(F)F)cc2)C1 (centres unmarked) [Example 74, 4-acetyl-1-(benzo[b]thiophene-2-sulfonyl)-piperazine-2-carboxylic acid 4-trifluoromethyl-benzylamide] | > 1000 nM | > 1000 nM |
